{"source": "patent US9862690B2", "about": "“Treatment of pulmonary and other conditions” (University of Pittsburgh—of the Commonwealth System of …, priority 2013, dated 2018)", "key": {"[1]": {"experiment": "FRAP assay (ferric reduction/anti-oxidant power)", "type": "biochemical", "conditions": "10 μmol compound, 5 min, 593 nm; Troxol reference", "method": "The antioxidant activity of PB141 was determined by ferric reduction/anti-oxidant power (FRAP) assay in which the compound is reacted with ferric tripyridyltriazine complex. Data are representative of one of two independent experiments; n=3; *** P<0.001 versus Troxol.\nThe antioxidant activity of PB141 or PB157 was determined by ferric reduction/anti-oxidant power (FRAP) assay in which the compounds are reacted with ferric tripyridyltriazine complex. The ferric complex was prepared at room temperature by reaction of ferric chloride (16.7 mmol) and 2,4,6-trispyridyl-s-triazine (8.33 mmol) in pH 3.6 acetate buffer (0.25 M). The FRAP reagent was used immediately after preparation. PB141 or PB157 (10 μmol) was added to the FRAP reagent (1 ml) and mixed by vortexing. The reaction was allowed to stabilize for 5 min and the absorbance was measured. The antioxidant activities of these compounds were determined by the ability to reduce the ferric complex to a […] ferrous complex, monitored at 593 nm. Troxol (10 μmol) was used as reference standard."}, "BEAS-2B cells": {"system": "BEAS-2B cells", "type": "cell-based", "method": "To evaluate cell viability, apoptosis, and cytotoxicity, the Apo Tox-Glo Triplex assay was used according to the manufacturer's instructions (Promega, Madison, Wis.). Briefly, the BEAS-2B cells were plated at 2×10^4 cells/well in 100 μl medium in an opaque walled, clear-bottomed, 96-well plate. After 24 hr culture, they were treated for a further indicated time with different concentrations of PB141 or PB157. At the end of the culture period, 20 μl viability/cytotoxicity reagent was added to each well, mixed by orbital shaking (300 r.p.m. for 30 s) and incubated for 30 min at 37° C. Fluorescence was then measured with excitation at 400 nm and emission at 505 nm to assess cell viability, and 485 nm excitation and 520 nm emission to assess cytotoxicity; both were quantified as relative fluorescence units (RFU). Then, 100 μl Caspase-Glo 3/7 reagent was added to each well, mixed by orbital shaking (300 r.p.m. for 30 s) and incubated for 30 min at room temperature. Luminescence was measured to assess caspase activation as a marker of apoptosis and quantified as relative luminescence units. Results for PB141 and PB157 were similar."}, "[2]": {"system": "OVA allergen-induced asthma in mice", "experiment": "Ovalbumin-induced asthma model", "type": "in vivo", "conditions": "25 mg/kg nebulized 30 min after each OVA challenge", "method": "Allergen-induced asthma was produced in mice by initial sensitization by intraperitoneal (i.p.) injection of OVA on days 0 and 7 and challenge by intratracheal injection of OVA on even-numbered days 14 through 22. Thirty minutes following each OVA challenge, PB141 (25 mg/kg) or vehicle (saline) was nebulized and delivered to cage air via a micropump nebulizer. Twenty-four hours after the last challenge and nebulization; airway hyperresponsiveness to increasing concentrations of inhaled methacholine was determined by the forced oscillation (flexiVent) method. (A) Airway resistance. (B) Airway elastance. Data are representative of one of two independent experiments with n=6-8 mice per group.\nAllergen induced asthma was produced in mice by initial sensitization by intraperitoneal (i.p.) injection of OVA on days 0 and 7 and challenge by intratracheal injection of OVA on even-numbered days 14 through 22. Thirty minutes after each OVA challenge, PB141 (25 mg/kg) or vehicle (saline) was nebulized and delivered to cage air via a micropump nebulizer. Twenty-four hours following the last challenge and nebulization, BAL fluid, plasma, and lung samples were obtained. (A) Total and differential cell count in BAL fluid. (B) Microscopic examination following staining of BAL fluid. (C) H2O2 production, (D) Protein concentration in BAL fluid. Data are representative of one of two independent experiments with n=7-10 mice per group; *** p<0.001.\nAllergen-induced asthma was produced in mice by initial sensitization by intraperitoneal (i.p.) injection of OVA on days 0 and 7 and challenge by intracheal injection of OVA on even-numbered days 14 through 22. Thirty minutes after each OVA challenge, PB141 (25 mg/kg) or vehicle (saline) was nebulized and delivered to cage air via a micropump nebulizer. Twenty-four hours following the last challenge and nebulization lung samples were obtained. The lung was examined histologically following (A) H&E staining, (B) trichrome staining, and (C) periodic acid Schiffs (PAS) staining. Data are representative of one of two independent experiments with n=7-10 mice per group.\nAllergen induced asthma was produced in mice by initial sensitization by intraperitoneal injection of OVA on days 0 and 7 and challenge by intratracheal injection of OVA on even-numbered days 14 through 22. […] Twenty-four hours following the last challenge and nebulization. airway hyperresponsiveness to methacholine challenge was measured noninvasively by whole body plethysmography (WBP; Buxco Research Systems, Wilmington, N.C.) and, invasively by computer-controlled ventilator (flexiVent; SCIREQ Inc., Montreal, Canada). Cellular Infiltration into the airspace was assessed by measuring myeloperoxidase activity in the lung and the number of polymorphonuclear neutrophils and eosinophils in bronchoalveolar lavage fluid (BALF). Lung inflammation was assessed by vascular permeability, edema, and cytokine generation. Anti-OVA IgE concentrations in the serum were measured using an ELISA kit (MD Bioproducts, St. Paul, Minn.). Lung histology sections were assessed by morphometry, with May-Grünwald-Giemsa or Periodic acid-Schiff (PAS) staining used for detection of mucopolysaccharide accumulation, Sirius Red or Masson's trichrome staining for detection of collagen deposition, and hematoxylin and eosin (H&E) staining for assessment of inflammation. Lung collagen content was determined by quantifying soluble collagen with the Sircol Collagen Assay Kit (Biocolor)."}, "[3]": {"system": "lung epithelial cells (BEAS2B)", "experiment": "IFN-γ or IL-4/IL-13 stimulated lung epithelial cells", "type": "cell-based", "conditions": "10 ng/ml IFN-γ or IL-4/IL-13 for 6 h", "excerpt": "It suppressed the infiltration of inflammatory cells into the airspace and lung and attenuated the expression of cytokines, chemokines, and IgE in BALF and serum."}}, "data": [{"smiles": "CC(=O)N[C@@H](CSC(CC(=O)CC(SC[C@H](NC(C)=O)C(=O)O)c1cnccn1)c1cnccn1)C(=O)O", "note": "(some centres unmarked) [PB141]", "values": [{"measurement": "Antioxidant activity (reduction of ferric complex)", "setting": "[1]", "value": "highly significant and approximately equal"}, {"measurement": "Cytotoxicity", "setting": "BEAS-2B cells", "value": "without exhibiting cytotoxicity"}, {"measurement": "Apoptosis (caspase 3/7 activation)", "setting": "BEAS-2B cells; different concentrations, data not shown", "value": "induced apoptosis"}, {"measurement": "Airway hyperresponsiveness to methacholine", "setting": "[2]", "value": "significantly suppressed"}, {"measurement": "Airway remodeling", "setting": "[2]", "value": "lessening"}, {"measurement": "Expression of cytokines, chemokines, and IgE in BALF and serum", "setting": "[2]", "value": "attenuated"}, {"measurement": "Infiltration of inflammatory cells into the airspace and lung", "setting": "[2]", "value": "suppressed"}, {"measurement": "Mucus accumulation", "setting": "[2]", "value": "lessening"}, {"measurement": "Cytokine generation", "setting": "[3]", "value": "inhibited"}, {"measurement": "NO production", "setting": "[3]", "value": "inhibited"}, {"measurement": "iNOS expression", "setting": "[3]", "value": "inhibited"}]}]}
